As usually defined, the IC50 is the point on the concentration scale where inhibition reaches its midpoint.

This experiment concerns the target T1, Gamma secretase (Homo sapiens, UniProt P49768).
T1 construct: endogenous in cells; host or cells: Salt-washed membranes of 293 T-REx cells, clone pTRE.15; Only the substrate SPC99-Lon is transfected (pcDNA4/TO, tetracycline-induced)
Put plainly: Gamma secretase activity assay on membranes of 293 cells expressing SPC99-Lon (Aβ 40 / Aβ 42 measured by ECL immunoassay). It counts as biochemical. To be noted: membrane γ-secretase assay. Here is the method: Upon insertion into the membrane, the 17 amino acid signal peptide is processed, leaving an additional leucine at the N-terminus of Aβ. SPC99-lon was cloned into the pcDNA4/TO vector (Invitrogen) and transfected into 293 cells stably transfected with pcDNA6/TR, which is provided in the T-REx system (Invitrogen). The transfected cells were selected in Dulbecco's modified Eagle's media (DMEM) supplemented with 10% fetal bovine serum, 100 units/mL penicillin, 100 µg/mL streptomycin, 250 µg/mL zeocin, and 5 µg/mL blasticidin (Invitrogen). Colonies were screened for Aδ production by inducing C99 expression with 0.1 g/mL tetracycline for 16–20 h and analyzing conditioned media with a sandwich immunoassay (see below). One of the clones, designated as pTRE.15, was used in these studies.
C99 expression in cells was induced with […] tetracycline for 20 h. The cells were pretreated with […] 12-myristate 13-acetate (PMA) and […] A (BFA) for 5–6 h at 37 C before harvesting. The cells were washed 3 times with cold phosphate-buffered saline (PBS) and harvested in buffer A containing 20 mM Hepes (pH 7.5), 250 mM sucrose, 50 mM KCl, 2 mM EDTA, 2 mM EGTA, and Complete protease inhibitor tablets (Roche Molecular Biochemicals). The cell pellets were flash-frozen in liquid nitrogen and stored at −70 C before use.
To make membranes, the cells were resuspended in buffer A and lysed in a nitrogen bomb at 600 psi. The cell lysate was centrifuged at 1500 g for 10 min to remove nuclei and large cell debris. The supernatant was centrifuged at 100000 g for 1 h. The membrane pellet was resuspended in buffer A plus 0.5 M NaCl, and the membranes were collected by centrifugation at 200000 g for 1 h. The salt-washed membrane pellet was washed again in buffer A and centrifuged at 100000 g for 1 h. The final membrane pellet was resuspended in a small volume of buffer A using a Teflon-glass homogenizer. The protein concentration was determined, and membrane aliquots were flash-frozen in liquid nitrogen and stored at −70 C. γ-Secretase Reaction and Aβ Analysis
To measure γ-secretase activity, membranes were incubated at 37 C for 1 h in 50 L of buffer containing 20 mM Hepes (pH 7.0) and 2 mM EDTA. At the end of the incubation, Aβ 40 and Aβ 42 were measured using an electrochemiluminescence (ECL)-based immunoassay. Aβ 40 was identified with antibody pairs TAG-G2–10 and biotin-W02, while Aβ 42 was identified with TAG-G2–11 and biotin-4G8. The ECL signal was measured using an ECL-M8 instrument (IGEN International, Inc.) according to the manufacturer's instructions. The data presented were the means of the duplicate or triplicate measurements in each experiment.

The mark [1] stands for this setting: range stated for a group of examples, read-out: IC50 within the range stated, gamma secretase assay.
Setting [2] is: 37 C, 1 h, read-out: IC50 (μM), γ-secretase inhibitory activity.

Each structure is given as a SMILES string. Read-outs that look alike come from different tables or passages of the source.

On to `O=C(OC[C@H]1CCC[C@@H](c2ccc(F)c(F)c2)N1S(=O)(=O)c1ccc(Cl)cc1)N1CCC(N2CCCCC2)CC1` [Example 67-BD], for which the IC50 under setting [1] lay within 0.0002 to 0.015 µM.

On to `O=C(OC[C@H]1CCC[C@@H](c2cc(F)cc(F)c2)N1S(=O)(=O)c1ccc(Cl)cc1)N1CCC(N2CCCCC2)CC1` [Example 67-BG], for which the IC50 under setting [2] was 0.0023 µM and the IC50 under setting [1] lay within 0.0002 to 0.015 µM.

In the case of `O=C(OC[C@H]1CCC[C@@H](c2cc(F)ccc2F)N1S(=O)(=O)c1ccc(Cl)cc1)N1CCC(N2CCCCC2)CC1` [Example 67-BL], the IC50 under setting [1] lay in the range of 0.0002 to 0.015 µM.

As for `O=C(OC1([C@H]2CCC[C@@H](c3cc(F)cc(F)c3)N2S(=O)(=O)c2ccc(Cl)cc2)CC1)N1CCC2(CC1)C(=O)NCN2c1ccccc1` [Example 173-L], the IC50 under setting [1] was 0.0002 to 0.015 µM.

As to `O=C(OC1([C@H]2CCC[C@@H](c3cc(F)cc(F)c3)N2S(=O)(=O)c2ccc(Cl)cc2)CC1)N1CCC(N2CCCCC2)CC1` [Example 173], the half-maximal inhibitory concentration (IC50) is 0.0002 µM under setting [2] and 0.0002 to 0.015 µM under setting [1].

As for `O=C(OC1(C2CCCC(c3cccc(F)c3)N2S(=O)(=O)c2ccc(Cl)cc2)CC1)N1CCN(C2CCCCC2)CC1` (centres unmarked) [Example 173-B], the IC50 under setting [1] was in the range of 0.0002 to 0.015 µM.

With `O=C(OC[C@H]1CCC[C@@H](c2cccc(F)c2)N1S(=O)(=O)c1ccc(Cl)cc1)N1CCC(N2CCC(F)(F)CC2)CC1` [Example 67-N], the IC50 under setting [1] was 0.0002 to 0.015 µM.

`CC1(N2CCCCC2)CCN(C(=O)OC[C@H]2CCC[C@@H](c3cccc(F)c3)N2S(=O)(=O)c2ccc(Cl)cc2)CC1` [Example 67-BA]: under setting [1], the IC50 lay within 0.0002 to 0.015 µM.

As for `O=C(OC1([C@H]2CCC[C@@H](c3ccc(F)cc3F)N2S(=O)(=O)c2ccc(Cl)cc2)CC1)N1CCC(N2CCCCC2)CC1` [Example 173-I], the IC50 under setting [1] lay within 0.0002 to 0.015 µM.

For the compound `O=C(OC[C@H]1CCC[C@@H](c2cccc(F)c2)N1S(=O)(=O)c1ccc(Cl)cc1)N1CCC(N2CCCCC2)CC1` [Example 67-B], the IC50 under setting [2] is 0.0027 µM and the IC50 under setting [1] fell in the range of 0.0002 to 0.015 µM.

Consider `NC(=O)C1(N2CCCCC2)CCN(C(=O)OC[C@H]2CCC[C@@H](c3cc(F)cc(F)c3)N2S(=O)(=O)c2ccc(Cl)cc2)CC1` [Example 67-BH], for which the IC50 under setting [1] lay in the range of 0.0002 to 0.015 µM.

For the compound `O=C(OC[C@H]1CCC[C@@H](c2cc(F)cc(F)c2)N1S(=O)(=O)c1ccc(Cl)cc1)N1CCC(N2CCCCC2)CC1` [Example 67-AT], the IC50 under setting [2] turned out to be 0.0038 µM.

As for `O=C(OC1([C@H]2CCC[C@@H](C3CC3)N2S(=O)(=O)c2ccc(Cl)cc2)CC1)N1CCC(N2CCCCC2)CC1` [Example 161-A], the IC50 is 0.0028 µM under setting [2] and 0.0002 to 0.015 µM under setting [1].

Consider `O=C(OC[C@H]1CCC[C@@H](c2ccccc2F)N1S(=O)(=O)c1ccc(Cl)cc1)N1CCC(N2CCCCC2)CC1` [Example 67-E], for which the concentration for half-maximal inhibition (IC50) under setting [1] fell in the range of 0.0002 to 0.015 µM.

Consider `O=C(OC1(C2CCCC(c3cccc(F)c3)N2S(=O)(=O)c2ccc(Cl)cc2)CC1)N1CCN(CCO)CC1` (centres unmarked) [Example 173-C], for which the IC50 under setting [2] was found to be 0.0018 µM and the 50% inhibitory concentration (IC50) under setting [1] lay within 0.0002 to 0.015 µM.

Regarding `NC(=O)C1(N2CCCCC2)CCN(C(=O)OC2([C@H]3CCC[C@@H](c4cc(F)cc(F)c4)N3S(=O)(=O)c3ccc(Cl)cc3)CC2)CC1` [Example 173-J], the IC50 runs as follows: under setting [2], 0.0008 µM; under setting [1], 0.0002 to 0.015 µM.

Take `O=C(OC[C@@H]1CCC[C@H](C2CC2)N1S(=O)(=O)c1ccc(Cl)cc1)N1CCN(C2CCCCC2)CC1` [Example 160-B]: the IC50 under setting [1] lay within 0.0002 to 0.015 µM.

On to `CC1CC(N2CCCCC2)CCN1C(=O)OC[C@@H]1CCC[C@H](C2CC2)N1S(=O)(=O)c1ccc(Cl)cc1` (some centres unmarked) [Example 160-K], for which the IC50 under setting [1] lay within 0.0002 to 0.015 µM.

As for `O=C(OC1([C@H]2CCC[C@@H](C3CC3)N2S(=O)(=O)c2ccc(Cl)cc2)CC1)N1CCN(CC2CC2)CC1` [Example 161-F], the IC50 under setting [1] lay within 0.0002 to 0.015 µM.

Regarding `O=C(OC1(C2CCCC(c3cccc(F)c3)N2S(=O)(=O)c2ccc(Cl)cc2)CC1)N1CCC2(CC1)NCNC2=O` (centres unmarked) [Example 173-G], under setting [1], the IC50 was 0.0002 to 0.015 µM.

For `CC(C)N1CCN(C(=O)OC2([C@H]3CCC[C@@H](C4CC4)N3S(=O)(=O)c3ccc(Cl)cc3)CC2)CC1` [Example 161-E], the concentration for half-maximal inhibition (IC50) under setting [1] fell in the range of 0.0002 to 0.015 µM.

On to `C=C1CCN(C2CCN(C(=O)OC[C@H]3CCC[C@@H](c4cccc(F)c4)N3S(=O)(=O)c3ccc(Cl)cc3)CC2)CC1` [Example 67-P], for which the IC50 under setting [1] fell in the range of 0.0002 to 0.015 µM.

`Cc1cc([C@@H]2CCC[C@H](COC(=O)N3CCC(N4CCCCC4)CC3)N2S(=O)(=O)c2ccc(Cl)cc2)ccc1F` [Example 67-BE]: under setting [1], the IC50 was 0.0002 to 0.015 µM.

Turning to `O=C(OC1([C@H]2CCC[C@@H](c3cc(F)cc(F)c3)N2S(=O)(=O)c2ccc(Cl)cc2)CC1)N1CCN(C2CCCCC2)CC1` [Example 173-K], the IC50 under setting [1] lay within 0.0002 to 0.015 µM.

Regarding `NC(=O)C1(N2CCCCC2)CCN(C(=O)OC2(C3CCCC(c4cccc(F)c4)N3S(=O)(=O)c3ccc(Cl)cc3)CC2)CC1` (centres unmarked) [Example 173-E], the IC50 by setting is: under setting [2], 0.0027 µM; under setting [1], 0.0002 to 0.015 µM.

In the case of `O=C(OC1(C2CCCC(c3cccc(F)c3)N2S(=O)(=O)c2ccc(Cl)cc2)CC1)N1CCC(N2CCCCC2)CC1` (centres unmarked) [Example 173-A], the IC50 reads like this: under setting [2], 0.0007 µM; under setting [1], 0.0002 to 0.015 µM.

As to `O=C(OC[C@H]1CCC[C@@H](c2cccc(F)c2)N1S(=O)(=O)c1ccc(F)cc1)N1CCC(N2CCCCC2)CC1` [Example 67-U], under setting [1], the IC50 was 0.0002 to 0.015 µM.

The record behind these values is US7256186B2, “Gamma secretase inhibitors” (Schering Corporation, priority 2002, dated 2007).
